Assay results published in ChEMBL document CHEMBL4411274, “Recent advances of tetrazole derivatives as potential anti-tubercular and anti-malarial agents” (Eur J Med Chem, 2019).
Values after ≈ are worked out from the molar mass of the structure shown.

What was measured:
[1] = tested on: Mycobacterium tuberculosis; assay: Antibacterial activity against Mycobacterium tuberculosis H37Rv; type: functional
[2] = tested on: Mycobacterium tuberculosis; assay: Antibacterial activity against Mycobacterium tuberculosis H37Rv by MABA; type: functional
[3] = tested on: Plasmodium falciparum; assay: Antimalarial activity against chloroquine resistant Plasmodium falciparum FcB1R; type: functional, organism-based
[4] = tested on: Mycobacterium tuberculosis; assay: Antibacterial activity against Mycobacterium tuberculosis H37Rv by resazurin dye-based assay; type: functional
[5] = tested on: Mycobacterium tuberculosis; assay: Antibacterial activity against Mycobacterium tuberculosis CNCTC My 331/88; type: functional
[6] = tested on: Mycobacterium kansasii; assay: Antibacterial activity against Mycobacterium kansasii isolate 6509/96; type: functional
[7] = tested on: Mycobacterium tuberculosis; assay: Antibacterial activity against Mycobacterium tuberculosis H37Rv after 5 days; type: functional; settings: 120 h
[8] = tested on: Plasmodium falciparum; assay: Antimalarial activity against ring-stage chloroquine-susceptible Plasmodium falciparum 3D7 preincubated for 6 hrs followed by compound wash and measured after 66 hrs by Giemsa-staining based light microscopic analysis; type: functional, organism-based
[9] = tested on: Plasmodium falciparum; assay: Antimalarial activity against ring-stage multidrug-resistant Plasmodium falciparum Dd2 preincubated for 6 hrs followed by compound wash and measured after 66 hrs by Giemsa-staining based light microscopic analysis; type: functional, organism-based
[10] = tested on: Mycobacterium avium; assay: Potency index, ratio of isoniazid MIC to compound MIC for Mycobacterium avium CNCTC My 330/88; type: functional
[11] = tested on: Mycobacterium kansasii; assay: Potency index, ratio of isoniazid MIC to compound MIC for Mycobacterium kansasii CNCTC My 235/80; type: functional
[12] = tested on: Mycobacterium kansasii; assay: Antibacterial activity against Mycobacterium kansasii CNCTC My 235/80; type: functional
[13] = tested on: Mycobacterium avium; assay: Antibacterial activity against Mycobacterium avium CNCTC My 330/88; type: functional

## CC[C@@H](CO)NCCN[C@@H](CC)CO [ETHAMBUTOL]
[1]
  MIC: 2 µg/mL (≈ 9.79 µM)
[2]
  MIC: 1.56 µg/mL (≈ 7.64 µM)

## CC1=C(CCc2nnnn2CCCC#N)C(=O)c2ccccc2C1=O
[3]
  IC50: 900 to 1400 nM

## NNC(=O)c1ccncc1 [ISONIAZID]
[1]
  MIC: 0.2 µg/mL (≈ 1.46 µM)
[4]
  MIC: 0.063 µg/mL (≈ 0.459 µM)
[5]
  MIC: 0.5 µg/mL (≈ 3.65 µM)
[6]
  MIC: 4 µg/mL (≈ 29.2 µM)

## c1cnc(-c2nn3nnnc3o2)cn1
[1]
  MIC: 50 µg/mL (≈ 264 µM)

## CO[C@H]1/C=C/O[C@@]2(C)Oc3c(C)c(O)c4c(O)c(c(/C=N/N5CCN(C)CC5)c(O)c4c3C2=O)NC(=O)/C(C)=C\C=C\[C@H](C)[C@H](O)[C@@H](C)[C@@H](O)[C@@H](C)[C@H](OC(C)=O)[C@@H]1C [RIFAMPIN]
[1]
  MIC: 0.25 to 40 µg/mL (≈ 0.304 to 48.6 µM)
[4]
  MIC: 0.006 µg/mL (≈ 0.00729 µM)

## Cc1ccc2c(c1)cc(C1C3=C(CC(C)(C)CC3=O)N(c3ccc(F)cc3)C3=C1C(=O)CC(C)(C)C3)c1nnnn12
[1]
  MIC: 50 µg/mL (≈ 91 µM)

## Cn1nnnc1SC1=CS(=O)(=O)c2ccccc21
[7]
  MIC: 2.6 µM (≈ 0.729 µg/mL)

## Cc1ccc(-n2c(-c3cc4cc(Cl)ccc4n4nnnc34)nc(-c3ccccc3)c2-c2ccccc2)cc1
[1]
  MIC: 25 µg/mL (≈ 48.7 µM)

## CN[C@@H]1[C@H](O[C@H]2[C@H](O[C@H]3[C@H](O)[C@@H](O)[C@H](N=C(N)N)[C@@H](O)[C@@H]3N=C(N)N)O[C@@H](C)[C@]2(O)C=O)O[C@@H](CO)[C@H](O)[C@H]1O [STREPTOMYCIN]
[1]
  MIC: 4 µg/mL (≈ 6.88 µM)

## CC1=C(CCc2nnnn2CCCCCC#N)C(=O)c2ccccc2C1=O
[3]
  IC50: 900 to 1400 nM

## CC1=C(CCc2nnnn2CCCCC#N)C(=O)c2ccccc2C1=O
[3]
  IC50: 900 to 1400 nM

## C[C@@H]1CC[C@H]2[C@@H](C)C(=O)O[C@@H]3O[C@@]4(C)CC[C@@H]1[C@]32OO4 [ARTEMISININ]
[8]
  IC50: 4 nM
[9]
  IC50: 2.5 nM

## Clc1ccc(-n2nnnc2SCc2ccccc2)cc1Cl
[5]
  MIC: 8 to 62.5 µg/mL (≈ 23.7 to 185 µM)
[10]
  Ratio: >4
[11]
  Ratio: >4
[12]
  MIC: 8 to 250 µg/mL (≈ 23.7 to 741 µM)
[13]
  MIC: 8 to 250 µg/mL (≈ 23.7 to 741 µM)
[6]
  MIC: 8 to 62.5 µg/mL (≈ 23.7 to 185 µM)
